Where “and” joins values, the source holds several entries; their conditions need not be identical. Equal entries are not always repeated.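 Cultured in 96-well plates, cells were exposed to test compound for 48 hours across five concentrations. GI50: concentration for 50% inhibition of growth. At the TGI there is no net growth.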
Key:
Assay in all cases: NCI tumour cell line growth inhibition, 48 h
SW-620 colon = tested on: SW-620 colon
NCI-H522 lung = tested on: NCI-H522 lung
COLO 205 colon = tested on: COLO 205 colon
SNB-19 CNS = tested on: SNB-19 CNS
HCT-15 colon = tested on: HCT-15 colon
NCI-H226 lung = tested on: NCI-H226 lung
HL-60(TB) leukemia = tested on: HL-60(TB) leukemia
OVCAR-8 ovarian = tested on: OVCAR-8 ovarian
OVCAR-5 ovarian = tested on: OVCAR-5 ovarian
HS 578T breast = tested on: HS 578T breast

| Structure (SMILES) | TGI (SW-620 colon) | TGI (NCI-H522 lung) | TGI (COLO 205 colon) | TGI (SNB-19 CNS) | TGI (HCT-15 colon) | TGI (NCI-H226 lung) | TGI (HL-60(TB) leukemia) | TGI (OVCAR-8 ovarian) | TGI (OVCAR-5 ovarian) | GI50 (SW-620 colon) | GI50 (NCI-H522 lung) | GI50 (COLO 205 colon) | GI50 (SNB-19 CNS) | GI50 (HS 578T breast) | TGI (HS 578T breast) | GI50 (HCT-15 colon) | GI50 (NCI-H226 lung) | GI50 (HL-60(TB) leukemia) | GI50 (OVCAR-8 ovarian) | GI50 (OVCAR-5 ovarian) |
| --- | --- | --- | --- | --- | --- | --- | --- | --- | --- | --- | --- | --- | --- | --- | --- | --- | --- | --- | --- | --- |
| CCC1(O)C(=O)OCc2c1cc1n(c2=O)Cc2c-1nc1ccccc1c2OC (centres undefined) | 29 µM | 0.984 µM | 13.9 µM | > 29.2 µM | 23.7 µM | 0.12 µM | < 0.0341 µM | > 100 µM | 27.4 µM |  |  |  |  |  |  |  |  |  |  |  |
| Cn1c(O)c(C=N)c(=O)n(C)c1=O | > 100 µM | > 100 µM |  | > 100 µM | > 100 µM | > 100 µM | > 100 µM | > 100 µM | > 100 µM |  |  |  |  |  |  |  |  |  |  |  |
| Cc1oncc1C(=O)Nc1ccc(C(F)(F)F)cc1 | > 100 µM | > 100 µM | > 100 µM | > 100 µM | > 100 µM | > 100 µM | > 100 µM | > 100 µM | > 100 µM | 92.5 µM | 33.6 µM | > 100 µM | > 100 µM | 54.5 µM | > 100 µM | 14.1 µM | 35.1 µM | 24.5 µM | 17.6 µM | > 100 µM |
| CC1=C(C)C(=O)c2c(cc3c4ccccc4ccn23)C1=O | > 100 µM | > 100 µM | > 100 µM | > 100 µM | > 100 µM | > 100 µM |  | > 100 µM |  |  |  |  |  |  |  |  |  |  |  |  |
| Nc1ccn(C2OC(CO[P+](=O)OC3C(CO[P+](=O)OC4C(CO[P+](=O)OC5C(CO[P+](=O)OC6C(CO[P+](=O)OC7C(CO[P+](=O)OC8C(CO[P+](=O)OC9C(CO[P+](=O)OC%10C(CO[P+](=O)OC%11C(CO)OC(n%12ccc(N)nc%12=O)C%11(F)F)OC(n%11ccc(N)nc%11=O)C%10(F)F)OC(n%10ccc(N)nc%10=O)C9(F)F)OC(n9ccc(N)nc9=O)C8(F)F)OC(n8ccc(N)nc8=O)C7(F)F)OC(n7ccc(N)nc7=O)C6(F)F)OC(n6ccc(N)nc6=O)C5(F)F)OC(n5ccc(N)nc5=O)C4(F)F)OC(n4ccc(N)nc4=O)C3(F)F)C(O)C2(F)F)c(=O)n1 (centres undefined) | > 100 µM | > 100 µM | > 100 µM | > 100 µM |  | > 100 µM | 0.18 µM |  | > 100 µM | 0.168 µM | 0.224 µM | 0.369 µM |  | > 100 µM |  | 0.704 µM | 18.3 µM |  |  | 9.59 µM |
| Nc1ccccc1C#Cc1ccccc1C#Cc1ccccc1N | 18.4 µM | 11.5 µM | 43.9 µM | 65.8 µM | 16.8 µM | 31.1 µM |  | 49.4 µM | 67.4 µM | 5.31 µM | 3.17 µM | 15 µM | 23.3 µM |  |  | 3.42 µM | 12.7 µM |  | 20.7 µM | 27.6 µM |
| CCOC(=O)NC(=O)c1cn(CCCCCCCCCCC(=O)N2CCN(CCn3cc(C(=O)NC(=O)OCC)c(=O)[nH]c3=O)CC2)c(=O)[nH]c1=O | > 100 µM |  | > 100 µM | > 100 µM | > 100 µM |  | > 100 µM | > 100 µM |  |  |  |  |  |  |  |  |  |  |  |  |
| Cn1nc(-c2ccccc2)c(C(=O)/C=C/c2ccccc2)c(N2CCCCC2)c1=O | > 100 µM | > 100 µM | > 100 µM | > 100 µM | > 100 µM |  | 12.3 µM | > 100 µM |  |  |  |  |  |  |  |  |  |  |  |  |
| S=C1CNC(=S)CN1 | > 100 µM | > 100 µM | > 100 µM | > 100 µM | > 100 µM | > 100 µM | > 100 µM | > 100 µM | > 100 µM |  |  |  |  |  |  |  |  |  |  |  |
| COC(=O)C1=C2C3=C(C(=O)c4ccccc4C3=O)N(Cc3ccccc3)C2(OC(C)=O)C=CC1=O (centres undefined) | 94 µM | > 100 µM | > 100 µM | > 100 µM | 53.9 µM | 32.6 µM |  | 83 µM | > 100 µM | 17.2 µM | 5.56 µM | 26.8 µM | 31.3 µM | 22 µM | 71.3 µM | 14.1 µM | 11.6 µM |  | 22.4 µM | 18.4 µM |
| CCC[CH2][Sn]([CH2]CCC)([O]C(=O)c1cc(OC)c(OC)c(OC)c1)[O]C(=O)c1cc(OC)c(OC)c(OC)c1 | 2.72 µM | 0.348 µM | 2.59 µM | 1.54 µM |  | 2.59 µM |  | 3.37 µM | 3.83 µM | 0.973 µM | 0.191 µM | 1.22 µM | 0.464 µM |  |  |  | 1.21 µM |  | 1.5 µM | 2.32 µM |
| COC1OC(COCc2ccc(Cl)cc2)C(OCc2ccc(Cl)cc2)C1O (centres undefined) | 29.6 µM | 27.5 µM | 34.3 µM | 32.4 µM | 32.3 µM |  | 32.2 µM | 69.7 µM | 30 µM |  |  |  |  |  |  |  |  |  |  |  |
| Oc1c(Cl)cc(C(c2cc(Cl)c(O)c(Cl)c2)C(c2cc(Cl)c(O)c(Cl)c2)c2cc(Cl)c(O)c(Cl)c2)cc1Cl | 23 µM | 47.5 µM | 28.9 µM | 17.3 µM | 13.7 µM |  |  | 22.3 µM | 24.8 µM | 6.6 µM | 6.36 µM | 10.6 µM | 3.51 µM | 4.54 µM | 57.4 µM | 2.57 µM | 25.7 µM |  | 4.11 µM | 12.3 µM |
| O=[N+]([O-])c1ccc(Oc2cccnc2)c([N+](=O)[O-])c1 | 12.5 µM | 9.55 µM | 4.39 µM | > 100 µM | > 100 µM | 25.5 µM |  | > 100 µM | 16.9 µM | 3.27 µM | 3.02 µM | 2.35 µM | 24.3 µM | 46 µM | > 100 µM | 3.75 µM | 2.97 µM |  | 3.52 µM | 3.26 µM |
| O=C1C(CN(Cc2ccccc2)Cc2ccccc2)CCCC1CN(Cc1ccccc1)Cc1ccccc1 (centres undefined) | > 100 µM |  |  | > 100 µM | 21.3 µM and > 100 µM | > 100 µM | 12 µM and > 100 µM | 43.1 µM and > 100 µM | > 100 µM | > 100 µM |  |  |  | > 100 µM and 28.1 µM | > 100 µM | 14.2 µM and > 100 µM |  |  | 22.9 µM and > 95.5 µM |  |
| CCCCCCCCCCCCCCCCc1c(C(=O)OC)[nH]c(=S)[nH]c1=O | > 50 µM | > 50 µM | > 50 µM | > 50 µM | > 50 µM |  | > 50 µM | > 50 µM | > 50 µM |  |  |  |  |  |  |  |  |  |  |  |
| N#Cc1cc(-c2ccccc2)[nH]c1-c1nccc2ccccc12 | > 100 µM | 98 µM | 33.2 µM | > 100 µM | > 100 µM |  | 82.6 µM | > 100 µM | > 100 µM | 61.5 µM | 12.4 µM | 11.7 µM | 31.3 µM | 37.6 µM | > 100 µM | 20.6 µM |  | 8.52 µM | 22.7 µM | 31.7 µM |

From PubChem BioAssay (NCI)
